Experimental data: PMC5406667, “Antiretroviral Activity Of a Novel Pyrimidyl-Di(Diazaspiroalkane) Derivative” (Acta Naturae, 2017)
“And” between values parts separate entries of the source, which are not always exact repeats. Identical values can stand only once. Like-named read-outs stand apart in the source and are kept apart here.

Tests used:
[1] = set-up: method as in PMID 15341064; settings: degradation accompanied by the formation of nitric oxide; cited from earlier work
cellular HSPG = test system: cellular HSPG; set-up: method as in earlier work; settings: prevents virus binding; cited from earlier work
herpes viruses = settings: cited from earlier work
SIV MAC 251 = settings: SIV MAC 251, MT-4 cells
Method: (§1) Our studies were carried out at the National Cancer Institute (National Cancer Institute, Bethesda, Maryland, USA). Antiviral activity was assessed using the XTT test with various concentrations of the compound and incubation of cells (CEM-SS, MT-2, MT-4) in the presence of serial dilutions of dispiropiperazine 2 (dissolved in dimethyl sulphoxide, DMSO) for 6 days at a temperature of 37°C and humidified atmosphere with 5% CO2, followed by addition of XTT reagents. The method is based on a spectrometric measurement of the level of formazan transformed by living cells from a water-soluble tetrazolium salt, XTT.
(§2) The following HIV strains were used: the reference HIV-1 IIIB strain; the AZT-sensitive HIV-1 6S, HIV- 1 RF strains; the drug-resistant HIV-1 N119 strains (resistant to nevirapine, Y181C mutation), HIV-1 DPS (resistant to diphenyl sulfone, Y181C mutation), and HIV-1 A-17 (resistant to nevirapine, K103N and Y181C mutations). We also used the HIV-2 ROD strain and simian immunodeficiency virus SIV MAC 251.

HIV-1 DPS = settings: MT-4 cells
Method: as §1, §2

HIV-1 A-17 = settings: for IC50: HIV-1 A-17 (resistant to nevirapine, K103N and Y181C), 6 days, XTT
Method: as §1, §2

HIV-1 RF = settings: CEM-SS cells
Method: as §1, §2

HIV-1 6S = test system: HIV-1 6S
Method: as §1, §2

HIV-1 IIIB = settings: MT-4 cells
Method: as §1, §2

HIV-2 ROD = settings: CEM-SS cells
Method: as §1, §2

HIV-1 N119 = test system: HIV-1 N119
Method: as §1, §2

CEM-SS = settings: read-out: CC50 (cytotoxic concentration), CEM-SS cells
Method: as §1

MT-4 = settings: read-out: CC50 (cytotoxic concentration), MT-4 cells
Method: as §1

MT-2 = settings: read-out: CC50 (cytotoxic concentration), MT-2 cells
Method: as §1

[O-][n+]1onc2ncnc(N3CC[N+]4(CC3)CC[N+]3(CCN(c5ncnc6no[n+]([O-])c56)CC3)CC4)c21 [Compound 1, N,N’-(bis-1-oxido[1,2,5]oxadiazolo [3,4d]-nitropyrimidine-7-il)-3,12-diaza-6,9-diazonia(5,2,5,2)dispirohexane dichloride]
Metabolic stability [1]: metabolic instability | Binding to cellular HSPG (cellular HSPG): effective reversible binding to cellular HSPG | Inhibition of replication in herpes viruses (herpes viruses): inhibits replication in herpes viruses

3,3’-(5-nitropyrimidine-4,6-diyl)bis-3,12-diaza-6,9-diazoniadispiro[ 5.2.5.2]hexadecane tetrachloride dihydrochloride [Compound 2]
TI (CC50/IC50), therapeutic index (SIV MAC 251): 31.5 | IC50 (SIV MAC 251; 6 days, XTT): 6.3 µM | IC50 (HIV-1 DPS; HIV-1 DPS (resistant to diphenyl sulfone, Y181C), 6 days, XTT): 1.17 µM and 1.2 µM | TI (CC50/IC50), therapeutic index (HIV-1 DPS; HIV-1 DPS): 170.0 | IC50 (HIV-1 A-17; MT-2 cells): 4.7 µM | IC50 (HIV-1 A-17; MT-4 cells): 33.7 µM | TI (CC50/IC50), therapeutic index (HIV-1 A-17; HIV-1 A-17, MT-2 cells): 16.7 | TI (CC50/IC50), therapeutic index (HIV-1 A-17; HIV-1 A-17, MT-4 cells): 5.9 | IC50 (HIV-1 RF; HIV-1 RF (AZT-sensitive), 6 days, XTT): 150 µM | TI (CC50/IC50), therapeutic index (HIV-1 RF; HIV-1 RF): 1.3 | IC50 (HIV-1 6S): 1.37 µM and 1.4 µM | TI (CC50/IC50), therapeutic index (HIV-1 6S; HIV-1 6S, MT-2 cells): 71.4 | IC50 (HIV-1 IIIB; HIV-1 IIIB (reference strain), 6 days, XTT): 5.7 µM | TI (CC50/IC50), therapeutic index (HIV-1 IIIB; HIV-1 IIIB): 35.0 | TI (CC50/IC50), therapeutic index (HIV-2 ROD): 15.0 | IC50 (HIV-2 ROD; 6 days, XTT): 13.3 µM | IC50 (HIV-1 N119; HIV-1 N119 (resistant to nevirapine, Y181C), MT-4 cells, 6 days, XTT): 31.7 µM | TI (CC50/IC50), therapeutic index (HIV-1 N119; HIV-1 N119, MT-4 cells): 6.3 | CC50 (CEM-SS; HIV-1 RF experiment): 197 µM | CC50 (CEM-SS; HIV-2 ROD experiment): 200 µM | CC50 (MT-4; HIV-1 A-17 experiment): 200 µM | CC50 (MT-4; HIV-1 DPS experiment): 200 µM | CC50 (MT-4; HIV-1 IIIB experiment): 200 µM | CC50 (MT-4; HIV-1 N119 experiment): 200 µM | CC50 (MT-4; SIV MAC 251 experiment): 200 µM | CC50 (MT-2; HIV-1 6S experiment): 98.2 µM | CC50 (MT-2; HIV-1 A-17 experiment): 79.1 µM
